{
  "source": "paper PMC4580393",
  "about": "(British Journal of Cancer, 2015)",
  "key": {"[1]": {"conditions": "following intravenous administration; no reference given; cited from earlier work"}, "[2]": {"test": "Plasma pharmacokinetics of irinotecan and SN-38 with and without pimasertib", "conditions": "for Ratio of AUC(0–∞) test/reference / Ratio of Cmax test/reference: day 1 with pimasertib / day 15 without pimasertib"}, "[3]": {"test": "Dose-limiting toxicities and MTD of pimasertib combined with FOLFIRI", "assay_type": "in vivo, human"}, "[4]": {"test": "Treatment-emergent adverse events, FOLFIRI plus pimasertib", "assay_type": "in vivo, human"}, "[5]": {"test": "Single-dose plasma pharmacokinetics of pimasertib with and without FOLFIRI", "assay_type": "in vivo, human", "conditions": "for Ratio of AUC(0–∞) test/reference / Ratio of Cmax test/reference / CL/f: median; for Ratio of AUC(0–∞) test/reference / Ratio of Cmax test/reference: day 1 with FOLFIRI / day 8 alone"}, "[6]": {"conditions": "ref Awada et al, 2012, cited from earlier work"}, "KRAS mt mCRC": {"system": "KRAS mt mCRC", "test": "Best overall response by RECIST v1.0, FOLFIRI plus pimasertib second-line", "assay_type": "in vivo, human", "conditions": "45 or 60 mg per day plus FOLFIRI"}, "human liver microsomes": {"system": "human liver microsomes", "conditions": "in vitro, ref Merck, data on file; cited from earlier work"}, "[7]": {"conditions": "45 mg per day pimasertib cohort"}, "[8]": {"conditions": "median, irinotecan 180 mg m^−2 infusion, day 15, without pimasertib (reference)"}, "[9]": {"conditions": "median, irinotecan 180 mg m^−2 infusion, day 1, with pimasertib (test)"}},
  "data": [
    {"smiles": "O=c1[nH]cc(F)c(=O)[nH]1", "note": "[5-FU, 5-fluorouracil]", "values": [
      {"measurement": "mean apparent terminal half-life", "setting": "[1]", "value": "~0.267", "unit": "h"}
    ]},
    {"smiles": "CCc1c2c(nc3ccc(OC(=O)N4CCC(N5CCCCC5)CC4)cc13)-c1cc3c(c(=O)n1C2)COC(=O)[C@]3(O)CC", "note": "[Irinotecan, irinotecan, reference compound]", "values": [
      {"measurement": "reduction of Cmax in the presence of pimasertib", "setting": "[2]; [7]", "value": 2.7, "unit": "%"},
      {"measurement": "reduction of exposure (AUC0–∞) in the presence of pimasertib", "setting": "[2]; [7]", "value": 8.9, "unit": "%"},
      {"measurement": "AUC(0-inf)", "setting": "[2]; human, in vivo, 180 mg m^−2, AUC(0–∞), median, irinotecan 180 mg m^−2 infusion, day 1, with pimasertib (test)", "value": 10600, "unit": "ng·h/mL"},
      {"measurement": "Cmax", "setting": "[2]; human, in vivo, 180 mg m^−2, Cmax, median, irinotecan 180 mg m^−2 infusion, day 15, without pimasertib (reference)", "value": 2120, "unit": "ng/mL"},
      {"measurement": "Tmax", "setting": "[2]; human, in vivo, 180 mg m^−2, Tmax, median, irinotecan 180 mg m^−2 infusion, day 1, with pimasertib (test)", "value": 1.5, "unit": "h"},
      {"measurement": "Ratio of AUC(0–∞) test/reference", "setting": "[2]; median", "value": 0.911},
      {"measurement": "Ratio of Cmax test/reference", "setting": "[2]; median", "value": 0.973},
      {"measurement": "Tmax", "setting": "[2]; [8]", "value": 1.54, "unit": "h"}
    ]},
    {"smiles": "CCc1c2c(nc3ccc(O)cc13)-c1cc3c(c(=O)n1C2)COC(=O)[C@]3(O)CC", "note": "[SN-38]", "values": [
      {"measurement": "increase in Cmax with coadministration of pimasertib", "setting": "[2]; [7]", "value": 11, "unit": "%"},
      {"measurement": "reduction of exposure (AUC0–∞) in the presence of pimasertib", "setting": "[2]; [7]", "value": 9, "unit": "%"},
      {"measurement": "Ratio of AUC(0–∞) test/reference", "setting": "[2]; median", "value": 0.91},
      {"measurement": "Ratio of Cmax test/reference", "setting": "[2]; median", "value": 1.11},
      {"measurement": "AUC(0–t)", "setting": "[2]; [9]", "value": 150, "unit": "ng·h/mL"},
      {"measurement": "AUC(0–∞)", "setting": "[2]; [9]", "value": 198, "unit": "ng·h/mL"},
      {"measurement": "Cmax", "setting": "[2]; [9]", "value": 20.4, "unit": "ng/mL"},
      {"measurement": "T1/2", "setting": "[2]; [9]", "value": 13.6, "unit": "h"},
      {"measurement": "AUC(0–t)", "setting": "[2]; [8]", "value": 146, "unit": "ng·h/mL"},
      {"measurement": "AUC(0–∞)", "setting": "[2]; [8]", "value": 206, "unit": "ng·h/mL"},
      {"measurement": "Cmax", "setting": "[2]; [8]", "value": 15.1, "unit": "ng/mL"},
      {"measurement": "T1/2", "setting": "[2]; [8]", "value": 15.7, "unit": "h"},
      {"measurement": "Tmax", "setting": "[2]; [8]", "value": 1.6, "unit": "h"}
    ]},
    {"smiles": "O=C(NC[C@H](O)CO)c1ccncc1Nc1ccc(I)cc1F", "note": "[pimasertib, Pimasertib]", "values": [
      {"measurement": "patients who experienced a DLT", "setting": "[3]; DLT analysis set, 15 patients, both dose levels", "value": "three"},
      {"measurement": "DLTs", "setting": "[3]; first three patients, 45 mg per day", "value": "no DLTs"},
      {"measurement": "Patients with ≥1 pimasertib-related TEAE (by worst grade)", "setting": "[4]; 45 mg per day (n=10), grade 1/2", "value": 5},
      {"measurement": "Patients with ≥1 pimasertib-related TEAE (by worst grade)", "setting": "[4]; 45 mg per day (n=10), grade 3", "value": 5},
      {"measurement": "Patients with ≥1 pimasertib-related TEAE (by worst grade)", "setting": "[4]; 45 mg per day (n=10), grade 4", "value": 0},
      {"measurement": "incidence of grade ≥3 pimasertib-related TEAEs", "setting": "[4]; 45 mg per day dose", "value": 50.0, "unit": "%"},
      {"measurement": "Patients with ≥1 pimasertib-related TEAE (by worst grade)", "setting": "[4]; 60 mg per day (n=6), grade 1/2", "value": 2},
      {"measurement": "Patients with ≥1 pimasertib-related TEAE (by worst grade)", "setting": "[4]; 60 mg per day (n=6), grade 3", "value": 2},
      {"measurement": "Patients with ≥1 pimasertib-related TEAE (by worst grade)", "setting": "[4]; 60 mg per day (n=6), grade 4", "value": 2},
      {"measurement": "incidence of grade ≥3 pimasertib-related TEAEs", "setting": "[4]; 60 mg per day dose", "value": 66.7, "unit": "%"},
      {"measurement": "Patients with ≥1 pimasertib-related TEAE (by worst grade)", "setting": "[4]; Overall (n=16), grade 1/2", "value": 7},
      {"measurement": "Patients with ≥1 pimasertib-related TEAE (by worst grade)", "setting": "[4]; Overall (n=16), grade 3", "value": 7},
      {"measurement": "Patients with ≥1 pimasertib-related TEAE (by worst grade)", "setting": "[4]; Overall (n=16), grade 4", "value": 2},
      {"measurement": "time to resolution of ocular AEs from day of onset", "setting": "[4]; all events except SRD in two patients", "value": "3 to 139", "unit": "days"},
      {"measurement": "Asthenia, pimasertib-related TEAE, patients", "setting": "[4]; overall n=16", "value": 37.5, "unit": "%"},
      {"measurement": "Diarrhoea, pimasertib-related TEAE, patients", "setting": "[4]; overall n=16", "value": 62.5, "unit": "%"},
      {"measurement": "Serous retinal detachment (SRD), pimasertib-related TEAE, patients", "setting": "[4]; overall n=16", "value": 37.5, "unit": "%"},
      {"measurement": "Skin/rash, pimasertib-related TEAE, patients", "setting": "[4]; overall n=16", "value": 50, "unit": "%"},
      {"measurement": "patients with at least one ocular event during trial treatment", "setting": "[4]; overall n=16", "value": 43.8, "unit": "%"},
      {"measurement": "patients with skin/rash events", "setting": "[4]; overall n=16", "value": 56.3, "unit": "%"},
      {"measurement": "reduction of exposure (AUC0–∞) in the presence of FOLFIRI", "setting": "[5]; 45 mg per day cohort", "value": 8.3, "unit": "%"},
      {"measurement": "reduction of maximum plasma concentration (Cmax) in the presence of FOLFIRI", "setting": "[5]; 45 mg per day cohort", "value": 16.3, "unit": "%"},
      {"measurement": "Ratio of AUC(0–∞) test/reference", "setting": "[5]; 45 mg per day", "value": 0.917},
      {"measurement": "Ratio of Cmax test/reference", "setting": "[5]; 45 mg per day", "value": 0.837},
      {"measurement": "Ratio of AUC(0–∞) test/reference", "setting": "[5]; 60 mg per day", "value": 0.825},
      {"measurement": "Ratio of Cmax test/reference", "setting": "[5]; 60 mg per day", "value": 0.751},
      {"measurement": "CL/f", "setting": "[5]; single 45 mg dose, day 1, with FOLFIRI (test)", "value": 38.7, "unit": "L/h"},
      {"measurement": "CL/f", "setting": "[5]; single 45 mg dose, day 8, alone (reference)", "value": 34.2, "unit": "L/h"},
      {"measurement": "CL/f", "setting": "[5]; single 60 mg dose, day 1, with FOLFIRI (test)", "value": 42.1, "unit": "L/h"},
      {"measurement": "CL/f", "setting": "[5]; single 60 mg dose, day 8, alone (reference)", "value": 44.6, "unit": "L/h"},
      {"measurement": "recommended single-agent dose for phase II trials", "setting": "[6]; administered continuously", "value": 60, "unit": "mg twice-daily"},
      {"measurement": "dose-limiting toxicities", "setting": "[6]; single-agent phase I dose-escalation trial", "value": "skin rash, acneiform dermatitis, ocular events and stomatitis"},
      {"measurement": "stable disease maintained for at least 12 weeks, share of the nine SD patients", "setting": "KRAS mt mCRC", "value": 66.7, "unit": "%"},
      {"measurement": "partial response as best overall response, patients", "setting": "KRAS mt mCRC; efficacy analysis set n=15", "value": 13.3, "unit": "%"},
      {"measurement": "progressive disease as best overall response, patients", "setting": "KRAS mt mCRC; efficacy analysis set n=15", "value": 20.0, "unit": "%"},
      {"measurement": "stable disease as best overall response, patients", "setting": "KRAS mt mCRC; efficacy analysis set n=15", "value": 60.0, "unit": "%"},
      {"measurement": "effect on 5-FU metabolism", "setting": "human liver microsomes", "value": "does not alter 5-FU metabolism"}
    ]}
  ]
}
